Values of other authors as cited in patent US20040241258A1, “Insect repellent for humans and animals” (priority 2003, published 2004).

Conditions: in vivo

time remaining in the blood stream after use: 30 days
SMILES: CCN(CC)C(=O)c1cccc(C)c1 [DEET, N, N-diethyl-meta-toulamide]
